Test results reported in patent US20250177529A1, “ACOUSTIC ENRICHMENT OF ADOPTIVE CELL TRANSFERS” (THE REGENTS OF THE UNIVERSITY OF COLORADO, A BODY CORPORATE, priority 2022, published 2025).

B1: IFNγ: inflammatory cytokine, equivalent free dose (protein, UniProt P01580 23-155, looked up)
Interferon gamma: HGTVIESLESLNNYFNSSGIDVEEKSLFLDIWRNWQKDGDMKILQSQIISFYLRLFEVLKDNQAISNNISVIESHLITTFFSNSKAKKDAFMSIAKFEVNNPQVQRQAFNELIRVVHQLLPESSLRKRKRSRC

Columns and labels:
[1] = in vivo; cited from earlier work
primary macrophages = assay: Primary macrophage polarization by IFNγ-containing particles; format: cell-based; settings: compared to controls
Excerpt: FIG. 7 presents exemplary data showing primary macrophage polarization in various conditions.
FIG. 7A: Normoxia (i.e., standard cell culture conditions) without interferon gamma (IFNγ).
FIG. 7B: Normoxia with IFNγ.
FIG. 7C: Tumor-promoting conditions (i.e., in hypoxia (1% 02) and 10 vol. % tumor (4T1)-conditioned media) and bound to IFNγ-containing particles after 24 hrs.
As discussed above, discoidal elastomeric particles can encapsulate inflammatory cytokines (i.e., IFNγ) and polarize the cells to which they are bound. […] Macrophages maintained their polarization for 5 days, even when challenged by hypoxia (1% O2) and tumor-conditioned media (i.e., 10 vol. % tumor (4T1)-conditioned media).

| Molecule | maximum tolerated dose (MTD) [1] | iNOS expression, fold higher (primary macrophages) |
| --- | --- | --- |
| CC(C)(CNC(=O)c1cccc(-c2noc(C(F)(F)F)n2)c1)c1coc(-c2ccccc2)n1 [TMP195] | 50 mg/kg | – |
| CCOCc1nc2c(N)nc3ccccc3c2n1CC(C)(C)O [resiquimod] | 5 mg/kg | – |
| B1 | – | 1.3 fold |
